The text below walks through data of ChEMBL document CHEMBL2413077, “Anion inhibition studies of the α-carbonic anhydrase from the protozoan pathogen Trypanosoma cruzi, the causative agent of Chagas disease” (Bioorg Med Chem, 2013).

A value given as a limit tells only on which side of the number the result lay.

This experiment has as its target Trypanosoma cruzi. The format is organism-based, CL Brener. As to conditions: sf9.
A word on the Ki: it is a dissociation constant, usually derived from enzyme kinetics or from competition with a known ligand. High values mean weaker binding, low ones tighter binding. Take `CCN(CC)C(=S)S` [DITIOCARB SODIUM]: the Ki amounted to 5 µM.

`O=[As](O)(O)c1ccccc1` [PHENYLARSONIC ACID] had a Ki of 620 µM.

As for `OB(O)c1ccccc1` [PHENYLBORONIC ACID], the inhibitory constant (Ki) came out at 860 µM. The Ki values of the last two compounds are within 1.5-fold of each other.

In turn, `[N-]=[N+]=[N-]` [SODIUM AZIDE] gave a Ki of 1120 µM.

`O=C([O-])O.[Na+]` [SODIUM BICARBONATE]: the affinity corresponds to a Ki of 580 µM.

`O=S([O-])O.[Na+]` [SODIUM BISULFITE]: the Ki turned out to be 910 µM.

The compound `[Br-].[Na+]` [SODIUM BROMIDE] had a Ki of 730 µM.

In the case of `O=C([O-])[O-].[Na+].[Na+]` [SODIUM CARBONATE], the Ki was 690 µM.

In turn, `[Cl-].[Na+]` [SODIUM CHLORIDE] displayed a Ki of 810 µM.

Turning to `N#CO` [SODIUM CYANATE], the Ki was 80 µM.

Regarding `[F-].[Na+]` [SODIUM FLUORIDE], the affinity corresponds to a Ki of 900 µM. Compared with the last compound, the Ki is about 11-fold higher.

`S` [SODIUM HYDROSULFIDE]: the Ki came out at 78 µM. This Ki lies about 12-fold lower than the previous one.

Regarding `O=S(=O)(O)ONOS(=O)(=O)O` [SODIUM IMINODISULFATE], the Ki was found to be 7100 µM.

The compound `[I-].[Na+]` [SODIUM IODIDE] registered a Ki of 44 µM.

Regarding `O=[N+]([O-])[O-].[Na+]` [SODIUM NITRATE], the affinity, expressed as Ki, was 770 µM.

The compound `O=NO` [SODIUM NITRITE] returned an inhibition constant Ki of 700 µM.

Consider `[O-][Cl+3]([O-])([O-])O` [SODIUM PERCHLORATE], for which the Ki was greater than 100000 µM.

For `O=S(=O)(O)OOS(=O)(=O)O` [SODIUM PERSULFATE], the affinity, expressed as Ki, was 840 µM.

For the compound `O=S(=O)(O)OS(=O)(=O)O` [SODIUM PYROSULFATE], the affinity corresponds to a Ki of 760 µM.

`O=[Se](=O)(O)O` [SODIUM SELENATE] yielded a Ki of 660 µM.

In turn, `N#C[SeH]` [SODIUM SELENOCYANATE] returned an inhibitory constant (Ki) of 780 µM.

In turn, `O=S(=O)([O-])[O-].[Na+].[Na+]` [SODIUM SULFATE ANHYDROUS] returned an inhibition constant (Ki) of 6900 µM.

With `O=[Te](=O)(O)O` [SODIUM TELLURATE], the Ki worked out at 710 µM.

For the compound `O=BOB(O)OB(O)OB=O` [SODIUM TETRABORATE], the Ki turned out to be 24300 µM.

Take `F[B-](F)(F)F.[Na+]` [SODIUM TETRAFLUOROBORATE]: the inhibition constant Ki was greater than 100000 µM.

In the case of `NS(=O)(=O)O` [SULFAMATE], the affinity corresponds to a Ki of 10600 µM.

`NS(N)(=O)=O` [SULFAMIDE]: the affinity corresponds to a Ki of 120 µM. This Ki is about 88-fold lower than that of the compound before.
